This is an account of results in publication PMC11293026, “Light-activated azobenzene peptide inhibitor of the PD-1/PD-L1 interaction” (Chemical Communications (Cambridge, England), 2024).

Entries after “also recorded” stand apart in the source; their conditions may differ. *1 amine or outer side, *2 acyl side, *3 side chain or, on linkers, in order; H or OH if unused. Where a SMILES comes first, the peptide text is derived from it. [ ]: non-standard residue; d: D form. X1 = O=C(Cc1cccc(/N=N/c2cccc(CN[*:1])c2)c1)[*:2]

As usually defined, the EC50 is the concentration at which the effect is half-maximal. The Kd is the constant that tells how readily two partners part at equilibrium.

One data set relates to PD-1/PD-L1. The settings on record: read-out: IC50, PD-1/PD-L1 inhibition of BMS-1; cited from earlier work. An excerpt:
Photo-switchable peptides that have the potential to be switched “on” and “off” through structural changes, present an opportunity for externally controlled immune checkpoint inhibitors.

Data set [1] has as its system PD-1/PD-L1 interaction between Jurkat-Lucia TCR-hPD-1 and Raji-APC PD-L1 cells. Nature of the data set: PD-1/PD-L1 immune checkpoint blockade cell-based assay (InvivoGen), luciferase read-out. More on the design: species or system human. The settings on record: Jurkat/Raji co-culture, 6 h at 37 °C, luminescence; 1 tested as cis isomer (irradiated at 365 nm); triplicate; brackets = 95% CI. As for the experimental part: Fig. 3 (A) HTRF assay with PD-1/PD-L1 and peptides CLP003, cis1 And trans1. (B) PD-1/PD-L1 immune checkpoint blockade assay (Invivogen). Increased luminescence implies PD-1/PD-L1 inhibition between modified Jurkat and Raji cells. Errors are SEM, performed in triplicate. Representative examples of n = 3.
There was concern that during the cellular assay incubation at 37 °C may result in the azobenzene modified peptide relaxing back to the trans isomer. To determine whether 1 was thermally stable to continue with cellular assays, 1 was incubated at 37 °C for 8 h after irradiation at 365 nm for 15 minutes in buffer. […] To explore the activity of 1 in a cellular context, an immune checkpoint blockade assay was performed. The cell-based assay (InvivoGen) consists of Jurkat T cells that are engineered to express luciferase via T cell receptor (TCR) signalling and Raji cells engineered to express PD-L1 on the cell surface. If PD-L1 is bound to PD-1, the luciferase expression is inhibited. […] As such, luciferase activity directly correlates to the PD-1/PD-L1 interaction, measured by luminescence following luciferin addition. […]
The assay was performed following the manufacturer’s protocol. […] The plate was read using a CLARIOstar (BMG Labtech) microplate reader and used following manufacturer’s protocols, reading luminescence at a 4 s start time and 0.1 s […]

The next data set deals with T1, PD-1/PD-L1 interaction (Homo sapiens, UniProt Q9NZQ7).
T1 construct: purchased Cisbio
As to the kind of experiment: PD-1/PD-L1 HTRF binding assay (Cisbio). The settings on record: for IC50: HTRF, 1 h at room temperature, three parameter logistic fit, brackets = 95% confidence interval, read-out: IC50, inhibition of PD-1/PD-L1 (HTRF); for IC50 / Alanine scan of CLP003, inhibition of PD-1/PD-L1 (HTRF) at single concentration: triplicate; for Alanine scan of CLP003, inhibition of PD-1/PD-L1 (HTRF) at single concentration: peptides screened at 1 mM in europium detection buffer, representative of n = 3. As for the experimental part:
All peptides were screened at 1 mM in europium detection buffer, BMS-1 (10 μM) was the control, the positive control contained tagged PD-L1 and tagged PD-1, the negative control contained tagged PD-L1 only. Errors are SEM, performed in triplicate. Representative example of n = 3. (B) Example azobenzene modified peptide, peptide 1, predicted to be unstructured in the trans isomer and a turn motif in the cis isomer. Structures predicted with RFAllAtom and Maestro. The arrows between residues in the cis conformation implies the N to C direction. (C) The analytical HPLC traces (254 nm) showing pre-irradiated (red), irradiated at 365 nm for 20 min (blue) and a co-injection of the two samples (green). (D) UV-Vis spectra of 1. […] Post irradiation, and after up to 6 hours in the dark characteristic maxima for the cis isomer at 450 nm is observed. (E) Absorbance at 330 nm over 10 cycles of photoisomerization of peptide 1 after 20 min irradiation at 365 nm, and then isomerisation for 20 min exposed to white light. […]
6. PD-1/PD-L1 HTRF binding assay
This assay was purchased from CisBio and was performed following the manufacturer’s protocol. Tag1-PD-L1 and Tag2-PD-1 was diluted 40-fold from the stock solution with PPI-Europium detection buffer. Anti-Tag1 Eu Cryptate reagent and Anti-Tag2 XL665 antibody was diluted 50-fold from the stock solution with PPI-Europium detection buffer. HTRF 96-well low volume white plate was used. The samples were made to the desired concentration and 2 µL was pipetted into the well. The 4 µL of Tag-1-PD-L1 solution (25 nM) was added, followed by 4 µL of Tag2-PD-1 solution (250 nM). 1X Anti-Tag1 Eu Cryptate reagent solution (25 nM|) and 1X Anti-Tag2 XL665 antibody solution (250 nM) were pre-mixed prior to dispensing 10 µL into the well, for a total volume of 20 µL. The plate was sealed and incubated for 1 hour at room temperature. Samples were analysed in triplicate. Once incubated, the plate was read using a CLARIOstar (BMG Labtech) microplate reader following manufacturer’s protocols for time resolved fluorescence (excitation filter EX-TR, emission filters 620 (10) nm, 665 (10) nm, dichoric mirror LP-TR, integration delay (lag time) 60 µs, integration time 400 µs, number of flashes 200, gain for white plate 2500).
The emission ratio was calculated for each well was calculated with the following equation:
Ratio = 665 nm Intensity […]
The “specific signal” (ΔR) is obtained by subtracting the background from the signal of each […]
∆R = RatioSample ‒ Ratiobackground […]
interaction. The data was fit to a three parameter logistic regression model with resulting R2 […]
On the day of analysis Raji-APC-nPD-L1 cell suspension ~100,000
(90 µL) was added to a 96 well plate containing test sample (1.8 µL), followed by Jurkat-Lucia TCR-hPD-1 cell suspension of ~200,000 (90 µL). The plate was incubated at 37 °C in a CO2 incubator for 6 hours. The co-cultured supernatant was transferred to 96-well clear bottomed […]
white plate. […]

A further data set deals with PD-L1. To be noted: cited from earlier work. An excerpt:
To determine where to insert AMPP, alanine scanning mutagenesis highlighted which amino acids were essential for inhibition using a homogenous time-resolved fluorescence (HTRF) binding assay (Cisbio).[38] From this Tyr5 and Trp7 were highlighted as being […] for inhibition (Fig. 2A). […] Photo-switchable peptides that have the potential to be switched “on” and “off” through structural changes, present an opportunity for externally controlled immune checkpoint inhibitors.

Data set [2] can be described thus: Thermal stability of 1 at 37 °C, analytical HPLC. Format: physicochemical. The settings on record: after irradiation at 365 nm for 15 min, 1 mg/mL in IMDM with 10% FBS, Pen-Strep and Normocin, analytical HPLC every hour. As for the experimental part:
There was concern that during the cellular assay incubation at 37 °C may result in the azobenzene modified peptide relaxing back to the trans isomer. To determine whether 1 was thermally stable to continue with cellular assays, 1 was incubated at 37 °C for 8 h after irradiation at 365 nm for 15 minutes in buffer. […] To explore the activity of 1 in a cellular context, an immune checkpoint blockade assay was performed. The cell-based assay (InvivoGen) consists of Jurkat T cells that are engineered to express luciferase via T cell receptor (TCR) signalling and Raji cells engineered to express PD-L1 on the cell surface. If PD-L1 is bound to PD-1, the luciferase expression is inhibited. If the PD-1/PD-L1 interaction is inhibited, TCR signalling causes luciferase expression. As such, luciferase activity directly correlates to the PD-1/PD-L1 interaction, measured by luminescence following luciferin addition. […]
Figure 6 a) The analytical HPLC traces of 6 reading at 214 nm top: after irradiation at 365 nm for 20 minutes showing predominantly the cis isomer (74:26) bottom: after being exposed for 20 minutes of ambient light showing predominantly the […]
This assay was purchased from CisBio and was performed following the manufacturer’s protocol. […] Samples were analysed in triplicate. […]
The emission ratio was calculated for each well was calculated with the following equation: […]

T1 sequence (Q9NZQ7 19-238 limits assumed): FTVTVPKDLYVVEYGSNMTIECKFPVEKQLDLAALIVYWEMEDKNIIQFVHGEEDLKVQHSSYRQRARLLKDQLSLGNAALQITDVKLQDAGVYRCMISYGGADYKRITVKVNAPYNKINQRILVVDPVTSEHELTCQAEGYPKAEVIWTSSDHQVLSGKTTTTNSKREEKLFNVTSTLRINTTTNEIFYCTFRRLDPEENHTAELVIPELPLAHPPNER

For `COc1cc(OCc2cccc(-c3ccccc3)c2C)cc(OC)c1CN1CCCC[C@H]1C(=O)O` [BMS-1, reference compound], the IC50 in the data set with PD-1/PD-L1 is 76 nM. Further, in data set [1], the EC50 worked out at 3990 nM.

In the case of `CC(=O)N[C@@H](Cc1c[nH]c2ccccc12)C(=O)N[C@@H](Cc1c[nH]cn1)C(=O)N[C@@H](Cc1ccccc1)C(=O)N[C@@H](CO)C(=O)N[C@@H](Cc1ccc(O)cc1)C(=O)N[C@@H](CC(N)=O)C(=O)N[C@@H](Cc1c[nH]c2ccccc12)C(=O)N[C@@H](CCCNC(=N)N)C(=O)N[C@@H](Cc1c[nH]c2ccccc12)C(=O)N[C@@H](CC(C)C)C(=O)N1CCC[C@H]1C(=O)N1CCC[C@H]1C(N)=O` [CLP003, reference compound] (Ac-WHFSYNWRWLPP-NH2), the IC50 on PD-1/PD-L1 interaction stood at 4680 nM. Also, the Kd at PD-L1 was 117 ± 80 nM.

For the compound `CC(=O)N[C@@H](Cc1c[nH]c2ccccc12)C(=O)N[C@@H](Cc1c[nH]cn1)C(=O)N[C@@H](Cc1ccccc1)C(=O)N[C@@H](CO)C(=O)N[C@@H](C)C(=O)N[C@@H](CC(N)=O)C(=O)N[C@@H](Cc1c[nH]c2ccccc12)C(=O)N[C@@H](CCCNC(=N)N)C(=O)N[C@@H](Cc1c[nH]c2ccccc12)C(=O)N[C@@H](CC(C)C)C(=O)N1CCC[C@H]1C(=O)N1CCC[C@H]1C(N)=O` [Y5A] (Ac-WHFSANWRWLPP-NH2), at PD-1/PD-L1 interaction, the IC50 was 52 nM and the “Alanine scan of CLP003, inhibition of PD-1/PD-L1 (HTRF) at single concentration” value is “inhibiting PD-1/PD-L1”.

On to `CC(=O)N[C@@H](Cc1c[nH]c2ccccc12)C(=O)N[C@@H](Cc1c[nH]cn1)C(=O)N[C@@H](Cc1ccccc1)C(=O)N[C@@H](CO)C(=O)N[C@@H](Cc1ccc(O)cc1)C(=O)N[C@@H](CC(N)=O)C(=O)N[C@@H](C)C(=O)N[C@@H](CCCNC(=N)N)C(=O)N[C@@H](Cc1c[nH]c2ccccc12)C(=O)N[C@@H](CC(C)C)C(=O)N1CCC[C@H]1C(=O)N1CCC[C@H]1C(N)=O` [W7A] (Ac-WHFSYNARWLPP-NH2), for which, on PD-1/PD-L1 interaction, the IC50 came out at 25 nM and the “Alanine scan of CLP003, inhibition of PD-1/PD-L1 (HTRF) at single concentration” value is on record as “inhibiting PD-1/PD-L1”.

Take `CC(=O)N[C@@H](Cc1c[nH]c2ccccc12)C(=O)N[C@@H](Cc1c[nH]cn1)C(=O)N[C@@H](Cc1ccccc1)C(=O)N[C@@H](CO)C(=O)N[C@@H](Cc1ccc(O)cc1)C(=O)N[C@@H](CC(N)=O)C(=O)NCc1cccc(/N=N/c2cccc(CC(=O)N[C@@H](CCCNC(=N)N)C(=O)N[C@@H](Cc3c[nH]c4ccccc34)C(=O)N[C@@H](CC(C)C)C(=O)N3CCC[C@H]3C(=O)N3CCC[C@H]3C(N)=O)c2)c1` [compound 1] (Ac-WHFSYN[X1]RWLPP-NH2): the “Inhibition of PD-1/PD-L1 (HTRF), trans isomer” value at PD-1/PD-L1 interaction (sample left in the dark (trans isomer), at up to 100 μM, detection buffer with 5% DMSO) is on record as “no appreciable inhibition”. Moreover, the “Thermal stability at 37 °C over 8 h (degradation / isomer state)” value in data set [2] is reported as “no degradation while remaining predominantly the cis isomer; also recorded: no observable change”. The EC50 in data set [1] stood at 5580 nM.
